Where only a bound is given, the exact number is not on record here.

The term melting point denotes the temperature, or range, at which the solid turns liquid. Broadly, the IC50 is the concentration that inhibits the measured activity by half.

Data set [1] relates to HT-29. Briefly: Sulforhodamine B antiproliferative assay, 72 h. Type of data set: cell-based, human. As to conditions: normal (21% of oxygen), 72-hour exposition. As for the experimental part: (§1) Anticancer activity of PDI A1-inhibitors has been also tested in vitro in antiproliferative essay in normoxic and hypoxic conditions as well in estrogen-stimulated cancer cells. In the experiment, cells were seeded on 96-well plates (Sarstedt, Germany) in appropriate culture medium at a density of 10^5 cells/mL 24 h before adding the tested compounds. Cells were treated with each compound in four concentrations in the range 0.1-100 ug/mL. […] After 72 h of compound treatment at 37° C., 5 % CO2 humid atmosphere and in wo different oxygen level conditions: 21% - normal and <1% - hypoxia. In some experiments, the MDA-MB-231 and MCF-7 cells were seeded with or without 200 nM estradiol and after 24 h the tested compounds were added. A previously described sulforhodamine B antiproliferative assay was used with minor modifications (Skehan P et al., 1990). Briefly, cells were fixed with 50 µL/well of 50% (w/v) trichloroacetic acid (Avantor Performance Materials, Gliwice, Poland). After 1 h incubation, plates were washed several times with tap water and 50 µL of 0.4% (w/v) solution of sulforhodamine B (Sigma-Aldrich, Germany) in 1% (v/v) acetic acid (Avantor Performance Materials, Gliwice, Poland) was added to each well. After 30 min incubation at room temperature, unbound dye was washed out with 1% (v/v) acetic acid, whereas bound dye was solubilized with 10 mM unbuffered TRIS (Avantor Performance Materials, Gliwice, Poland) solution. The entire procedure was performed using a BioTek EL-406 washing station (BioTek Instruments, USA). After additional 30 min, absorbance was read using a Biotek Hybrid H4 reader (BioTek Instruments, USA) at 540 nm wavelength. MTT assay was used alternatively for HL-60 cell line and in the experiment in which estrogens are added (specified in the table legend). Absorbance was measured using a Biotek Hybrid H4 reader at 570 nm wavelength for MTT assay.
(§2) Compounds at each concentration were tested in triplicate in a single experiment and each experiment was repeated at least three times independently.
(§3) Results of in vitro antiproliferative effects are shown in Table 3 and Table 4 and are presented as mean IC50 ± SD calculated using the Prolab-3 system based on Cheburator 0.4 software.

In data set [2] the test system is MDA-MB-231. The data set can be described thus: Sulforhodamine B antiproliferative assay, 72 h, normal and hypoxia. Type of data set: cell-based, human. As to conditions: 72-hour exposition. As for the experimental part: as §1, §2, §3
In general terms: The SRB assay estimates cell density from bound dye.

In data set [3] the test system is MCF-7. Described as above. The class given is cell-based, human. As to conditions: 72-hour exposition. The protocol:
as §1, §2, §3

Data set [4] concerns the target T1, PDI A1 (Homo sapiens, UniProt P07237).
T1 construct: purchased Mybiosource; host or cells: E. coli
Briefly: Insulin turbidometric assay, inhibition of PDI A1. As to conditions: insulin reduction, turbidity at 650 nm, 60 min incubation at 37° C.; read-out: Inhibition of PDI A1 (EC 50). Type of data set: biochemical. The protocol:
The inhibitory effects compounds of invention on activity of PDI A1 was assess based on the insulin turbidometric assay. Enzymatic activity of PDIA1 was confirmed by measuring the turbidity increase at 650 nm due to insulin reduction. The assay mixture was prepared by addition 10 ug/ml PDIA1 (E.coli recombinant protein; Mybiosource), 0.1 mM phosphate buffer (pH7.6), 1 mM EDTA, 0.087 mM DTT and with or without tested compound and was incubated for 60 min, at 37° C. Reaction was started by addition insulin and DTT. Final concentration of insulin and DTT in assay mixture was 0.15 mM and 0.174 mM, respectively. Turbidity was detected at 650 nm against reference samples without PDI A1s. The measurements were performed at 650 nm using 120-s recordings.

The subject of data set [5] is MDA-MB-231 (human mammary breast adenocarcinoma). Briefly: MTT antiproliferative assay, 48 h. Type of data set: cell-based. As to conditions: for IC50: Homo sapiens, MDA-MB-231, 48-hour exposition, read-out: Cytotoxicity, IC50, µM MDA-MB-231. As for the experimental part: (§4) About 2000-4000 cells per well (depending on line nature) were placed in 96-well plates and after 24 h compounds were added to the wells. Untreated cells were used as a control. The plates were incubated for 48 h, 37° C., 5% CO2. The number of surviving cells was determined using 3-(4,5-dimethylthiazol-2-yl)-2,5-diphenyltetrazolinium bromide (MTT). MTT-test: after incubating culture medium was removed and 200 µL fresh medium with 20 µL MTT (2 mg/mL in HBSS) was added in each well of the plate. After incubation (3 hr., 37° C., 5% CO2), the medium with MTT was removed and 200 µL DMSO were added at once to each sample. The samples were tested at 540 nm on Thermo Scientific Multiskan EX microplate photometer. The half-maximal inhibitory concentration (IC50) of each compound was calculated using Graph Pad Prism® 3.0.
On the technique in general: Tetrazolium dyes change colour on reduction, which living cells bring about.

Data set [6] has as its system MCF-7 (human breast adenocarcinoma, estrogen-positive). The data set can be described thus: MTT antiproliferative assay, 48 h. The class given is cell-based. As to conditions: for IC50: Homo sapiens, MCF7, 48-hour exposition, read-out: Cytotoxicity, IC50, µM MCF-7. The protocol: as §4
Data set [7] deals with HT-1080 (human fibrosarcoma). Briefly: MTT antiproliferative assay, 48 h. The class given is cell-based. As to conditions: 48-hour exposition, read-out: Cytotoxicity, IC50, µM HT-1080. As for the experimental part: as §4
Data set [8] deals with Caco-2 (human colon adenocarcinoma). The data set can be described thus: MTT antiproliferative assay, 48 h. Type of data set: cell-based. As to conditions: for IC50: Homo sapiens, Caco-2, 48-hour exposition, read-out: Cytotoxicity, IC50, µM CaCo-2. The protocol: as §4

T1 sequence (P07237 18-508, species assumed): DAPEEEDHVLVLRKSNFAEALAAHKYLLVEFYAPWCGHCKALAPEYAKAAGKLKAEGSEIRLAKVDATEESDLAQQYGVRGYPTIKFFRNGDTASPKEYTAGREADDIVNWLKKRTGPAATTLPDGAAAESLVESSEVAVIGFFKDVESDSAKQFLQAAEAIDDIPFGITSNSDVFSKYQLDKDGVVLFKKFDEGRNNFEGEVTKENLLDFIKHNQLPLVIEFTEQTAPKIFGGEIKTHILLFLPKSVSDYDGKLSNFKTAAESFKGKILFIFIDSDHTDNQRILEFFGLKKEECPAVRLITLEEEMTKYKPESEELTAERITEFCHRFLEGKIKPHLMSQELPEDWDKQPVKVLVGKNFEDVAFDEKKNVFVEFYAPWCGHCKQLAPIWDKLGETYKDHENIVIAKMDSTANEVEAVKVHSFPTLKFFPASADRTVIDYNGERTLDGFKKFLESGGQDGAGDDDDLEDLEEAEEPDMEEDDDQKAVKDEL

With `N.N.[Cl][Pt][Cl]` [Cisplatin, reference compound], the “IC50 [µg/ml] HT-29 normal” value in data set [1] worked out at 2.82 ± 0.6 µg/mL. The “IC50 [µg/ml] MDA-MB-231 hypoxia” value in data set [2] (hypoxia (<1% of oxygen)) amounted to 3.1 ± 0.9 µg/mL. Further, the “IC50 [µg/ml] MDA-MB-231 normal” value in data set [2] (normal (21% of oxygen)) is 3.2 ± 0.5 µg/mL. Moreover, the “IC50 [µg/ml] MCF-7 hypoxia” value in data set [3] (hypoxia (<1% of oxygen)) is 1.3 ± 0.5 µg/mL. The “IC50 [µg/ml] MCF-7 normal” value in [3] (normal (21% of oxygen)) came to 1.8 ± 0.3 µg/mL.
On to `COC(=O)C1CN1S(=O)(=O)c1ccc([N+](=O)[O-])cc1` (stereo not shown) [Compound C-3212, Methyl 1-(4-nitrophenyl)sulfonylaziridine-2-carboxylate], for which the melting point is 106 to 108 °C. In [4], the EC50 was 34 µM.
Compound `NC(=O)C1CN1S(=O)(=O)c1ccc(N)cc1` (stereo not shown) [Compound C-3218, 1-(4-Aminophenyl)sulfonylaziridine-2-carboxamide] returned a melting point of 139 to 141 °C. Further, the EC50 in data set [4] was more than 200 µM. Further, in data set [5], the IC50 was 64 ± 5 µM. The IC50 in data set [6] turned out to be 137 ± 14 µM. Besides, the IC50 in data set [7] was determined as 200 ± 3 µM. The IC50 in [8] was found to be 200 ± 1 µM.
On to `COC(=O)C1CN1S(=O)(=O)c1ccc(NC(C)=O)cc1` (stereo not shown) [Compound C-3308, Methyl 1-(4-acetamidophenyl)sulfonylaziridine-2-carboaylate], for which the EC50 in [4] was 18 µM. In addition, the IC50 in data set [5] is more than 500 µM; in data set [6], 485 ± 32 µM; in data set [7], 120 ± 6 µM; in data set [8], 100 ± 5 µM.
On the same counts, the results for `Cc1ccc(S(=O)(=O)N2CC2C#N)cc1` (stereo not shown) [Compound C-3314, 1-(p-Tolylsulfonyl)aziridine-2-carbonitrile] are 4.1 µM, 104 ± 3 µM, 206 ± 21 µM, 4.5 ± 1 µM and 14 ± 0.8 µM.
In the same order, the values of `COC(=O)C1CN1S(=O)(=O)c1ccco1` (stereo not shown) [Compound C-3346, Methyl 1-(2-furylsulfonyl)aziridine-2-carboxylate] are more than 200 µM, more than 200 µM, 458 ± 6 µM, 169 ± 11 µM and 17 ± 2 µM.
On to `COC(=O)C1CN1S(=O)(=O)c1ccc2[nH]c(=O)ccc2c1` (stereo not shown) [Compound C-3350, Methyl 1-[(2-oxo-1H-quinolin-6-yl)sulfonyl]aziridine-2-carboxylate], for which the melting point lay in the range of 139 to 141 °C. In [4], the EC50 stood at 5.5 µM. In addition, the IC50 in data set [5] stood at 136 ± 6 µM. In data set [6], the IC50 was 80 ± 8 µM. In addition, the IC50 in [7] was found to be 16 ± 5 µM. Further, in data set [8], the IC50 turned out to be 49 ± 5 µM.
For `COC(=O)C1CN1S(=O)(=O)c1ccc2oc(=O)ccc2c1` (stereo not shown) [Compound C-3355, Methyl 1-(2-oxochromen-6-yl)sulfonylaziridine-2-carboxylate], the melting point lay within 42 to 44 °C. Further, in [4], the EC50 was 7.7 µM. For the same compound, the IC50 in data set [5] came to 247 ± 14 µM. For the same compound, the IC50 in data set [6] came out at 276 ± 9 µM. In addition, the IC50 in [7] was determined as 20 ± 1 µM. In addition, in data set [8], the IC50 was determined as 39 ± 1 µM.
For the compound `COC(=O)C1CN1S(=O)(=O)c1ccc2c(C=O)c(N(C)C)ccc2c1` (stereo not shown) [Compound C-3390, Methyl 1-[[6-(dimethylamino)-5-formyl-2-naphthyl]sulfonyl]aziridine-2-carboxylate], the EC50 in data set [4] is 0.6 µM. Also, the IC50 in [5] was 18 ± 0.1 µM; in data set [6] it was 20 ± 0.3 µM; in data set [7] it was 7.9 ± 0.9 µM; in data set [8], 11 ± 2 µM.
Consider `CNc1ccc2cc(S(=O)(=O)N3CC3C(=O)OC)ccc2c1Cl` (stereo not shown) [Compound C-3393, Methyl 1-[[5-chloro-6-(methylamino)-2-naphthyl]sulfonyl]aziridine-2-carboxylate], for which the melting point lay in the range of 170 to 172 °C. Also, the EC50 in data set [4] stood at 0.34 µM. Besides, in data set [5], the IC50 was 32 ± 4 µM. The IC50 in [6] was 29 ± 3 µM. In data set [7], the IC50 worked out at 0.46 ± 0.04 µM. In addition, the IC50 in data set [8] was found to be 35 ± 1 µM.
`CN(C)c1ccc2c(S(=O)(=O)N3CC3C(N)=O)cccc2c1` (stereo not shown) [Compound C-3459, 1-[[6-(Dimethylamino)-1-naphthyl]sulfonyl]aziridine-2-carboxamide] returned a melting point of 197 to 199 °C. Moreover, the EC50 in data set [4] turned out to be 33 µM. The “Cytotoxicity, IC50, µM MDA-MB-231” value in data set [5] (48-hour exposition) is “n.e”. Further, the “Cytotoxicity, IC50, µM MCF-7” value in data set [6] (48-hour exposition) is listed as “n.e”. In data set [7], the IC50 was more than 500 µM. Also, in [8] (48-hour exposition), the “Cytotoxicity, IC50, µM CaCo-2” value was “n.e”.
In the case of `COC(=O)[C@@H]1CN1S(=O)(=O)c1ccc(C)cc1` (stereo partly drawn) [Compound C-3535, Methyl (2S)-1-(p-tolylsulfonyl)aziridine-2-carboxylate], the EC50 in [4] turned out to be 11.2 µM. Besides, the IC50 is 107 ± 11 µM in data set [5], 81 µM in data set [6], 84 ± 3 µM in data set [7] and 35 ± 7 µM in [8].
On the same counts, the results for `COC(=O)[C@H]1CN1S(=O)(=O)c1ccc(C)cc1` (stereo partly drawn) [Compound C-3539, Methyl (2R)-1-(p-tolylsulfonyl)aziridine-2-carboxylate] are 29 µM, 40 ± 5 µM, 113 ± 6 µM, 20 ± 1 µM and 23 ± 1 µM.
As to `COC(=O)[C@@H]1CN1S(=O)(=O)c1cccc2cc(N(C)C)ccc12` (stereo partly drawn) [Compound C-3548, Methyl (2S)-1-[[6-(dimethylamino)-1-naphthyl]sulfonyl]aziridine-2-carboxylate], the EC50 in [4] was 6 µM. For the same compound, the IC50 amounted to 57 ± 9 µM in data set [5], 37 ± 3 µM in [6], 9.2 ± 1 µM in [7] and 45 ± 13 µM in data set [8].
Turning to `COC(=O)C1CN1S(=O)(=O)c1cccnc1` (stereo not shown) [Compound C-3559, Methyl 1-(3-pyridylsulfonyl)aziridine-2-carboxylate], the EC50 in data set [4] was found to be 10.6 µM. In addition, the IC50 in data set [5] is 128 ± 8 µM; in [6] it was 154 ± 25 µM; in data set [7], 372 ± 23 µM; in data set [8], 260 ± 55 µM.
Regarding `NC(=O)C1CN1S(=O)(=O)c1cccnc1` (stereo not shown) [Compound C-3562, 1-(3-pyridylsulfonyl)aziridine-2-carboxamide], the melting point lay in the range of 147 to 149 °C. Moreover, the EC50 in [4] came to 29 µM. Besides, the IC50 in data set [5] came to 24 ± 2 µM. Further, the IC50 in [6] worked out at 57 ± 5 µM. Also, in data set [7], the IC50 is 31 ± 2 µM. Moreover, in data set [8], the IC50 came to 36 ± 6 µM.
As for `COC(=O)[C@H]1CN1S(=O)(=O)c1cccc2cc(N(C)C)ccc12` (stereo partly drawn) [Compound C-3570, Methyl (2R)-1-[[6-(dimethylamino)-1-naphthyl]sulfonyl]aziridine-2-carboxylate], the EC50 in [4] is 11 µM. The IC50 came out at 14 ± 3 µM in data set [5], 29 ± 2 µM in data set [6], 12 ± 1 µM in [7] and 13 ± 1 µM in [8].
